# Measurements taken from PMC11089505, “Structural Elucidation and Antiviral Activity of Covalent Cathepsin L Inhibitors” (Journal of Medicinal Chemistry, 2024).
# Several values for one entry are separate records, joined by “and”; a condition that tells them apart may be missing. Identical values can stand only once. Like-named read-outs stand apart in the source and are kept apart here. Peptide text beside a SMILES is read from it. * marks the point of attachment. Cbz = O=C(OCc1ccccc1)*
# Tests used:
# [1] = biological target: SARS-CoV-2 Mpro (Severe acute respiratory syndrome coronavirus 2, UniProt P0DTD1); type: binding; conditions: for ΔTm (for Mpro), 2:1 compound to protein mixing ratio: 8 µM Mpro, pH 7.5, 2% DMSO; for 2:1, Tm average (Mpro): 2:1 compound to protein
# [2] = biological target: T1, CatL (Homo sapiens, UniProt P07711, T223A); experiment: NanoDSF, thermal stability of CatL; type: binding; conditions: for ΔTm (for CatL), 2:1 compound to protein mixing ratio / ΔTm (for CatL), 20:1 compound to protein mixing ratio: pH 5
# T1 construct: made in house; host or cells: Komagataella pastoris strain GS115
# [3] = biological target: T1, CatL; experiment: CatL inhibition assay (Ki), substrate Z-RR-AMC; type: biochemical
# Protocol: (§1) Experiments were performed in a solution of 50 mM sodium acetate, pH 4.0, 50 mM NaCl, 0.1% PEG 6000, and 5 mM DTT. Distinct assays with epoxide inhibitors at pH 6.0 were performed in 50 mM sodium phosphate buffer, 50 mM NaCl, 5 mM DTT, 0.1% PEG 6000, adjusted to pH 6.0.
# (§2) M1000 pro plate reader (Tecan), the fluorescent peptide substrate Z-RR-AMC, and excitation and emission wavelengths of 370 and 460 nm, respectively.
# (§3) At first, the inhibitor concentration span was optimized for each inhibitor and the assay buffer. For this initial screening, CatL (5 nM) was mixed with different concentrations of inhibitors (1 nM–50 μM) to determine the range of their inhibition. […] Reaction data were fitted to the […] in GraphPad Prism 9 software: Y = bottom + (top – bottom)/(1 + 10^∧((log IC50 – X) × HillSlope)); X is the log of dose or concentration, Y is the response (fluorescence signal), decreasing as X increases, top and bottom are the plateaus in the same units as Y, log IC50 same log units as X, HillSlope is the slope factor or called the Hill slope.
# [4] = biological target: T1, CatL; experiment: CatL inactivation assay comparing epoxides at pH 6 and pH 4; type: biochemical
# Protocol: as §1, §2, §3
# Figure S7. Inactivation of CatL.
# (1 picture or pasted object on this page, not shown here)
# T1 sequence (P07711 114-333 T223A): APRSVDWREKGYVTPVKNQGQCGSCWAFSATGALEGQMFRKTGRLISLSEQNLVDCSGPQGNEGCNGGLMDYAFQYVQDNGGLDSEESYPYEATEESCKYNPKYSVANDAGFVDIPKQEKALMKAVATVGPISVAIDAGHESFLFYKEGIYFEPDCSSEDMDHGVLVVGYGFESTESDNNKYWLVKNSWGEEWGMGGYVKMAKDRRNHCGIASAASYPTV
structure (smiles),measurement,setting,value
"CC(C)(C)OC(=O)Nc1cccn([C@@H](CC2CC2)C(=O)N[C@@H](C[C@@H]2CCNC2=O)C(=O)C(=O)NCc2ccccc2)c1=O [13b, tert-Butyl N-[1-[(2S)-1-[[(2S)-4-(benzylamino)-3,4-dioxo-1-[(3S)-2-oxopyrrolidin-3-yl]butan-2-yl]amino]-3-cyclopropyl-1-oxopropan-2-yl]-2-oxopyridin-3-yl]carbamate]","ΔTm (for Mpro), 2:1 compound to protein mixing ratio",[1],"15,7 ± 0,1 °C and 15.7 °C"
same,"2:1, Tm average (Mpro)",[1],70.3 °C
same,"2:1, Tm average (CatL)",[2],68.7 °C
same,"20:1, Tm average (CatL)",[2],76.7 °C
same,"ΔTm (for CatL), 2:1 compound to protein mixing ratio",[2],"5,6 ± 0,1 °C and 5.6 °C"
same,"ΔTm (for CatL), 20:1 compound to protein mixing ratio",[2],"13,6 ± 0,1 °C and 13.6 °C"
same,Residual activity (Vi/V0),[3]; 13b 31.346 nM,0.9675 and 0.9627 and 0.6897 and 0.9692 and 0.9864 and 0.9669
same,Residual activity (Vi/V0),[3]; 13b 52.243 nM,0.8888 and 0.9182 and 0.9209 and 0.8812 and 0.9125
same,remaining activity at 0.052243 µM,"[3]; 13b 52.243 nM, read-out: Residual activity (Vi/V0)",90.6%
same,Residual activity (Vi/V0),[3]; 13b 87.071 nM,0.8265 and 0.8739 and 0.8771 and 0.8407 and 0.8552
same,remaining activity at 0.087071 µM,"[3]; 13b 87.071 nM, read-out: Residual activity (Vi/V0)",84.2%
same,Residual activity (Vi/V0),[3]; 13b 145.119 nM,0.7626 and 0.6965 and 0.7661 and 0.7352 and 0.7663
same,remaining activity at 0.145119 µM,"[3]; 13b 145.119 nM, read-out: Residual activity (Vi/V0)",77.4%
same,Residual activity (Vi/V0),[3]; 13b 241.865 nM,0.6661 and 0.7001 and 0.6736 and 0.645 and 0.6598
same,Residual activity (Vi/V0),[3]; 13b 403.108 nM,0.5626 and 0.5615 and 0.5111 and 0.5683 and 0.5779
same,remaining activity at 0.403108 µM,"[3]; 13b 403.108 nM, read-out: Residual activity (Vi/V0)",56.2%
same,Residual activity (Vi/V0),[3]; 13b 671.846 nM,0.4836 and 0.4354 and 0.4683 and 0.4708 and 0.465
same,remaining activity at 0.671846 µM,"[3]; 13b 671.846 nM, read-out: Residual activity (Vi/V0)",47.5%
same,Residual activity (Vi/V0),[3]; 13b 1119.744 nM,0.4051 and 0.4054 and 0.4004 and 0.3916 and 0.3989
same,remaining activity at 1.11974 µM,"[3]; 13b 1119.744 nM, read-out: Residual activity (Vi/V0)",38.3%
same,Residual activity (Vi/V0),[3]; 13b 1866.240 nM,0.3283 and 0.3165 and 0.3193 and 0.3153 and 0.3192
same,remaining activity at 1.86624 µM,"[3]; 13b 1866.240 nM, read-out: Residual activity (Vi/V0)",32.5%
same,Residual activity (Vi/V0),[3]; 13b 3110.400 nM,0.258 and 0.2535 and 0.24 and 0.2503 and 0.2489
same,remaining activity at 3.1104 µM,"[3]; 13b 3110.400 nM, read-out: Residual activity (Vi/V0)",24.7%
same,Residual activity (Vi/V0),[3]; 13b 5184.000 nM,0.1828 and 0.1618 and 0.1725 and 0.1795 and 0.1597
same,Residual activity (Vi/V0),[3]; 13b 8640.000 nM,0.1228 and 0.1221 and 0.1079 and 0.1237 and 0.1244
same,remaining activity at 8.64 µM,"[3]; 13b 8640.000 nM, read-out: Residual activity (Vi/V0)",12.4%
same,Residual activity (Vi/V0),[3]; 13b 24000.000 nM,0.04988 and 0.04656 and 0.04753 and 0.05569 and 0.04454
same,remaining activity at 24 µM,"[3]; 13b 24000.000 nM, read-out: Residual activity (Vi/V0)",4.42%
same,Ki,"[3]; CatL, Z-RR-AMC, pH 4.0, 37 °C, read-out: Ki",293 nM
"CC(C)[C@H](NC(=O)OCc1ccccc1)C(=O)N[C@H](C=O)Cc1ccccc1 [CI-III, N-Cbz-Val-Phe-aldehyde] (Cbz-Val-Phe-aldehyde)","2:1, Tm average (Mpro)",[1],54.5 °C
same,"2:1, Tm average (CatL)",[2]; 2:1 compound to protein,75.2 °C
same,"20:1, Tm average (CatL)",[2]; 20:1 compound to protein,81.2 °C
same,remaining activity at 0.000282 µM,"[3]; read-out: Residual activity (Vi/V0), CI-III 0.282 nM",60.4%
same,remaining activity at 0.000404 µM,"[3]; read-out: Residual activity (Vi/V0), CI-III 0.404 nM",45.4%
same,remaining activity at 0.000576 µM,"[3]; read-out: Residual activity (Vi/V0), CI-III 0.576 nM",33.4%
same,remaining activity at 0.000824 µM,"[3]; read-out: Residual activity (Vi/V0), CI-III 0.824 nM",23.1%
same,remaining activity at 0.001176 µM,"[3]; read-out: Residual activity (Vi/V0), CI-III 1.176 nM",16.3%
same,remaining activity at 0.001681 µM,"[3]; read-out: Residual activity (Vi/V0), CI-III 1.681 nM",10.8%
same,remaining activity at 0.002401 µM,"[3]; read-out: Residual activity (Vi/V0), CI-III 2.401 nM",6.67%
same,remaining activity at 0.00343 µM,"[3]; read-out: Residual activity (Vi/V0), CI-III 3.430 nM",4.1%
"CC(C)C[C@H](NC(=O)[C@H]1O[C@@H]1C(=O)O)C(=O)NCCCCN=C(N)N [E-64, 3-[[[(1S)-1-[[[4-[(Aminoiminomethyl)amino]butyl]amino]carbonyl]-3-methylbutyl]amino]carbonyl]-(2S.3S)-oxiranecarboxylic acid]",Inactivation Rate,"[4]; E-64, pH 4, 19.76 nM",0.0008123 per second and 0.00102 per second
same,Inactivation Rate,"[4]; E-64, pH 4, 29.64 nM",0.001302 per second and 0.001598 per second
same,Inactivation Rate,"[4]; E-64, pH 4, 44.45 nM",0.002006 per second and 0.002388 per second
same,Inactivation Rate,"[4]; E-64, pH 4, 66.68 nM",0.003192 per second and 0.003338 per second
same,Inactivation Rate,"[4]; E-64, pH 4, 100.01 nM",0.004626 per second and 0.004922 per second
same,Inactivation Rate,"[4]; E-64, pH 4, 225.00 nM",0.01185 per second and 0.01036 per second
same,Inactivation Rate,"[4]; E-64, pH 6, 19.76 nM",0.0005258 per second and 0.000578 per second
same,Inactivation Rate,"[4]; E-64, pH 6, 29.64 nM",0.0007668 per second and 0.0008131 per second
same,Inactivation Rate,"[4]; E-64, pH 6, 44.45 nM",0.001154 per second and 0.001247 per second
same,Inactivation Rate,"[4]; E-64, pH 6, 66.68 nM",0.001742 per second and 0.001837 per second
same,Inactivation Rate,"[4]; E-64, pH 6, 100.01 nM",0.002659 per second and 0.002717 per second
same,Inactivation Rate,"[4]; E-64, pH 6, 225.00 nM",0.006042 per second and 0.006005 per second
same,"ΔTm (for Mpro), 2:1 compound to protein mixing ratio",[1],"-1,0 ± 0,2 °C and -1 °C"
same,"2:1, Tm average (Mpro)",[1],54.4 °C
same,"ΔTm [K] for CatL, 2:1 ratio",[2],4.1 ± 0.4 K
same,"2:1, Tm average (CatL)",[2]; 2:1 compound to protein,67.2 °C
same,"20:1, Tm average (CatL)",[2]; 20:1 compound to protein,76.9 °C
same,"ΔTm (for CatL), 2:1 compound to protein mixing ratio",[2],"4,1 ± 0,4 °C and 4.1 °C"
same,"ΔTm (for CatL), 20:1 compound to protein mixing ratio",[2],"13,8 ± 0,1 °C and 13.8 °C"
